The subject of assay [1] is biomarkers for myocardial infarction risk. The following applies: clinical trial; cited from earlier work.
In assay [2] the test system is synthesis of LTB4 in human whole blood. Kind of assay: human whole blood LTB4 production inhibition assay. The format is cell-based. Particulars: heparinized human whole blood, calcimycin-stimulated, plasma LTB4; read-out: hWB IC50. As for the experimental part: Compounds are additionally tested in a human whole blood assay to determine their ability to inhibit the synthesis of LTB4 in a cellular system. Compounds are combined with heparinized human whole blood and incubated for 15 minutes at 37° C. Calcimycin ([…], prepared in phosphate-buffered saline, pH 7.4) is then added and the mixture is incubated for another 30 minutes at 37° C. The samples are centrifuged for 5 min at low speed (1500×g) and the plasma layer is removed. Plasma LTB4 concentrations are then measured using an antibody-based homogenous time-resolved fluorescence method (CisBio, Bedford, Mass.).

Assay [3] has as its target recombinant human FLAP protein (Homo sapiens (Human), UniProt P20292). The assay is described as follows: FLAP binding assay (Scintillation Proximity Assay). Particulars: displacement of [125I]L-691,831, membranes of sf9 cells expressing human FLAP; read-out: SPA IC50. As for the experimental part: Compounds are assessed for the ability to bind to FLAP in a binding assay that measures compound-specific displacement of an iodinated (^125I) FLAP inhibitor via a Scintillation Proximity Assay format (adapted from S. Charleson et al., Mol. Pharmacol., 1992, 41, 873-879).
Cell pellets produced from sf9 insect cells expressing recombinant human FLAP protein are resuspended in buffer A [15 mM Tris-HCl (pH 7.5), 2 mM MgCl2, 0.3 mM EDTA, 1 mM PMSF]. The cells are lysed with a Dounce homogenizer and the material is centrifuged at 10,000×g for 10 minutes. The supernatant is then collected and centrifuged at 100,000×g for 60 minutes. To prepare membrane protein for an assay, an aliquot of the 100,000×g pellet is resuspended in 1 ml of buffer A, Dounce homogenized, and finally subjected to polytron mixing (30 seconds). Membrane protein (25 μl, 5 μg) is mixed with WGA SPA beads (Amersham) and stirred for 1 h. To an assay plate (Perkin Elmer FlexiPlate) is added 25 μl of test compound prepared in Binding buffer [100 mM Tris (pH 7.5), 140 mM NaCl, 5% glycerol, 2 mM EDTA, 0.5 mM TCEP, 0.05% Tween 20], 25 μl of [^125I]L-691,831 (an iodinated analog of MK-591, Charleson et al. Mol. Pharmacol., 41, 873-879, 1992) and finally 50 μl of the bead/protein mixture. (final concentrations: beads, 200 μg/well; protein, 5 μg/well; [^125I] probe, 0.08 nM/well (17 nCi/well). The plates are shaken for 2 h before reading on a Microbeta plate reader. Non-specific binding is determined by the addition of 10 μM cold L-691,831 compound.

The test system of assay [4] is human glomerulonephritis. Particulars: clinical trial; cited from earlier work.
In assay [5] the test system is ApoE−/−xCD4dnTβRII mice. The following applies: administration via infusion, treated for four weeks; cited from earlier work.
Assay [6] deals with apoE/LDL-R double knockout mice. Particulars: oral dosing, high-fat diet from 2 months of age to 6 months; cited from earlier work.

Data on 13 compounds can be found in patent US8829200B2, “Benzimidazole inhibitors of leukotriene production” (Boehringer Ingelheim International GmbH, priority 2010, dated 2014).

Sequence of recombinant human FLAP protein (P20292 whole entry): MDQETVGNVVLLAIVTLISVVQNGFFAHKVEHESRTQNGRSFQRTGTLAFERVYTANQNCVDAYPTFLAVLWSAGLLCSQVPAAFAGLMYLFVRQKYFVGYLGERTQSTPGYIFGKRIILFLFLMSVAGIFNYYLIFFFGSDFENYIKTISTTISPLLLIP

For the compound `O=C(O)[C@@H](c1ccc(OCc2ccc3ccccc3n2)cc1)C1CCCC1` [DG-031], in assay [1], the “effect on biomarkers for myocardial infarction risk” value was “dose-dependent suppression of several biomarkers”.
As for `CC(C)(C)NC(=O)c1ccccc1-c1nc2cc(-c3cnc(N)nc3)ccc2n1C(C)(C)C` [Example 21, 2-[5-(2-Amino-pyrimidin-5-yl)-1-tert-butyl-1H-benzoimidazol-2-yl]-N-tert-butyl-benzamide], the results for the IC50 in assay [2] and in assay [3] were 3.29 µM and 0.0147 µM, respectively.
The corresponding values for `CC(C)(C)n1c(-c2ccccc2C(=O)Nc2cccnc2)nc2cc(-c3cnc(N)nc3)ccc21` [Example 22, 2-[5-(2-Amino-pyrimidin-5-yl)-1-tert-butyl-1H-benzoimidazol-2-yl]-N-pyridin-3-yl-benzamide] are 2.25 µM and 0.0015 µM.
`CCNC(=O)c1ccccc1-c1nc2cc(-c3cnc(N)nc3)ccc2n1C(C)(C)C` [Example 23, 2-[5-(2-Amino-pyrimidin-5-yl)-1-tert-butyl-1H-benzoimidazol-2-yl]-N-ethyl-benzamide]: the IC50 stood at 2.23 µM in assay [2] and 0.0174 µM in assay [3].
On the same counts, the results for `CN(C)CCNC(=O)c1ccccc1-c1nc2cc(-c3cnc(N)nc3)ccc2n1C(C)(C)C` [Example 24, 2-[5-(2-Amino-pyrimidin-5-yl)-1-tert-butyl-1H-benzoimidazol-2-yl]-N-(2-dimethylamino-ethyl)-benzamide] are 2.87 µM and 0.14 µM.
The corresponding values for `CC(C)(C)n1c(-c2ccccc2C(=O)NC2CCNCC2)nc2cc(-c3cnc(N)nc3)ccc21` [Example 25, 2-[5-(2-Amino-pyrimidin-5-yl)-1-tert-butyl-1H-benzoimidazol-2-yl]-N-piperidin-4-yl-benzamide] are greater than 5 µM and 0.46 µM.
The corresponding values for `CC(C)NC(=O)c1ccccc1-c1nc2cc(-c3cnc(N)nc3)ccc2n1C(C)(C)C` [Example 26, 2-[5-(2-Amino-pyrimidin-5-yl)-1-tert-butyl-1H-benzoimidazol-2-yl]-N-isopropyl-benzamide] are 4.9 µM and 0.0346 µM.
Consider `CC(C)(C)n1c(-c2ccccc2C(=O)N2CCOCC2)nc2cc(-c3cnc(N)nc3)ccc21` [Example 28, {2-[5-(2-Amino-pyrimidin-5-yl)-1-tert-butyl-1H-benzoimidazol-2-yl]-phenyl}-morpholin-4-yl-methanone], for which the figures for the IC50 in assay [2] and in assay [3] were greater than 5 µM and 0.52 µM, respectively.
`CN(C)C(=O)c1ccccc1-c1nc2cc(-c3cnc(N)nc3)ccc2n1C(C)(C)C` [Example 29, 2-[5-(2-Amino-pyrimidin-5-yl)-1-tert-butyl-1H-benzoimidazol-2-yl]-N,N-dimethyl-benzamide]: the half-maximal inhibitory concentration (IC50) in assay [2] came out at 3.05 µM; in assay [3] it was 0.2 µM.
On the same counts, the results for `CNC(=O)c1cc(F)ccc1-c1nc2cc(-c3cnc(N)nc3)ccc2n1C(C)(C)C` [Example 33, 2-[5-(2-Amino-pyrimidin-5-yl)-1-tert-butyl-1H-benzoimidazol-2-yl]-5-fluoro-N-methyl-benzamide] are 3.08 µM and 0.02 µM.
On the same counts, the results for `CNC(=O)c1cccc(F)c1-c1nc2cc(-c3cnc(N)nc3)ccc2n1C(C)(C)C` [Example 34, 2-[5-(2-Amino-pyrimidin-5-yl)-1-tert-butyl-1H-benzoimidazol-2-yl]-3-fluoro-N-methyl-benzamide] are 0.906 µM and 0.0158 µM.
With `CC(C)(C)Sc1c(CC(C)(C)C(=O)O)n(Cc2ccc(Cl)cc2)c2ccc(OCc3ccc4ccccc4n3)cc12` [MK-591], in assay [4], the effect on proteinuria result is on record as “reduce proteinuria”.
For `CC(C)c1ccc2c(c1)c(SC(C)(C)C)c(CC(C)(C)C(=O)O)n2Cc1ccc(Cl)cc1` [MK-886], the “decrease in plaque area in the aortic root” value in assay [5] is recorded as roughly 40%. Moreover, in assay [6], the “decrease in plaque coverage in the aorta” value is recorded as 56% and the “decrease in plaque coverage in the aortic root” value is on record as 43%.
